Experimental data reported in patent US5475010A, “7'-amino-naphthazarin antibiotic derivatives” (Gruppo Lepetit S.p.A., priority 1991, dated 1995).
In brackets after ≈: the same amount, converted by molar mass. Structures can show the parent of a compound that is named as a salt. Where two headings read alike, the source gives them in different places.

Legend:
Format in all cases: cell-based
[1] = tested on: Staphilococcus haemolyticus (clin. isolate); assay: MIC by broth microdilution, Staphylococcus haemolyticus
[2] = tested on: Proteus vulgaris X19H ATCC 881; assay: MIC by broth microdilution, Proteus vulgaris
[3] = tested on: Propionibacterium acnes ATCC 6919; assay: MIC by broth microdilution, Propionibacterium acnes; conditions: Cutibacterium acnes
[4] = tested on: Candida albicans SKF 2270; assay: MIC by broth microdilution, Candida albicans; conditions: Table 2; internal code 145; approx. 10^4 cfu/ml; buffered Yeast Nitrogen Base broth + glucose + L-asparagine; 37° C., 20-24 h, air
[5] = tested on: Bacteroides fragiles ATCC 9689; assay: MIC by broth microdilution, Bacteroides fragilis; conditions: ATCC9689, Table 2, internal code 1010, approx. 10^4 cfu/ml, Wilkins-Chalgren broth, 37° C., 48 h, N2-CO2-H2 (80:10:10)
[6] = tested on: Enterococcus faecalis ATCC 7080; assay: MIC by broth microdilution, Enterococcus faecalis; conditions: ATCC7080
[7] = tested on: Staphilococcus aureus Tour; assay: MIC by broth microdilution, Staphylococcus aureus Tour; conditions: Iso-Sensitest broth, 37° C., 20-24 h, air
[8] = tested on: Staphilococcus epidermidis ATCC 12228; assay: MIC by broth microdilution, Staphylococcus epidermidis; conditions: ATCC12228
[9] = tested on: Escherichia coli SKF 12140; assay: MIC by broth microdilution, Escherichia coli
[10] = tested on: Streptococcus pneumonieae UC 41; assay: MIC by broth microdilution, Streptococcus pneumoniae
[11] = tested on: Streptococcus pyogenes C 203; assay: MIC by broth microdilution, Streptococcus pyogenes; conditions: C203
[12] = tested on: Tricophyton mentagrophytes; assay: MIC by broth microdilution, Trichophyton mentagrophytes; conditions: 72 h
[13] = tested on: Pseudomonas aeruginosa ATCC 10145; assay: MIC by broth microdilution, Pseudomonas aeruginosa; conditions: ATCC10145, Table 2, internal code 4, approx. 10^4 cfu/ml, Iso-Sensitest broth, 37° C., 20-24 h, air
[14] = tested on: Clostridium perfringens ISS 30543; assay: microbe, parasite or virus in culture; conditions: ISS30543, 48 h
[15] = Table 2, internal code 165, + 30% bovine serum
[16] = Table 2, internal code 165, inoculum approx. 10^4 cfu/ml
[17] = Table 2, internal code 634, 1% (v/v) suspension of mycelia and conidia, YM broth, 30° C., air, read-out: MIC
[18] = ATCC6919, Table 2, internal code 1014, approx. 10^4 cfu/ml, Wilkins-Chalgren broth, 37° C., 48 h, N2-CO2-H2 (80:10:10), read-out: MIC
[19] = Table 2, internal code 165, + 30% bovine serum, read-out: MIC
[20] = Table 2, internal code 165, inoculum 10^6 cfu/ml

Row | Structure (SMILES) | MIC [1] [mg/L] | MIC ([2]; ATCC881) [mg/L] | MIC ([3]; ATCC6919, 48 h) [mg/L] | MIC [5] [mg/L] | MIC [6] [mg/L] | MIC [7, 15] [mg/L] | MIC [7, 16] [mg/L] | MIC [8] [mg/L] | MIC ([9]; SKF12140) [mg/L] | MIC ([10]; UC41) [mg/L] | MIC [11] [mg/L] | MIC [13] [mg/L] | MIC [3, 18] [mg/L] | MIC [12] [mg/L] | MIC [14] [mg/L] | MIC [7, 20] [mg/L] | other results
1 | COC(=O)c1cc2cc3c(c(O)c2c(=O)o1)OC1(CC3)Cc2c(O)c3c(c(O)c2O1)C(=O)C(N)=CC3=O (centres unmarked) [Example 30, 7'-Amino-γ-rubromycin] | 0.016 (≈ 0.0315 µM) | > 128 | 0.016 (≈ 0.0315 µM) | 0.06 (≈ 0.118 µM) | 0.03 (≈ 0.0591 µM) | 1 | 0.016 (≈ 0.0315 µM) | 0.016 (≈ 0.0315 µM) | > 128 | 0.016 (≈ 0.0315 µM) | 0.03 (≈ 0.0591 µM) | > 128 | – | – | – | – | MIC [4]: 16 mg/L; MIC [12, 17]: 16 mg/L (≈ 31.5 µM)
2 | COC(=O)c1cc2cc3c(c(O)c2c(=O)o1)OC1(Cc2c(O)c4c(c(O)c2O1)C(=O)C(NCCN(C)C)=CC4=O)CC3O (centres unmarked) [Example 6, 7'-(2-dimethylaminoethylen)amino purpuromycin hydrochloride] | 0.5 | 128 | – | 0.5 | – | – | – | – | – | – | – | 128 | 0.06 | 128 | – | – | MIC [4]: 64 mg/L; MIC [7, 19]: 0.25 mg/L; MIC ([9]; SKF12140, Table 2, internal code 47, approx. 10^4 cfu/ml, Iso-Sensitest broth, 37° C., 20-24 h, air, read-out: MIC): 16 mg/L; MIC ([10]; UC41, Table 2, internal code 44, approx. 10^4 cfu/ml, Todd Hewitt broth, 37° C., 20-24 h, air, read-out: MIC): 0.06 mg/L
3 | COC(=O)c1cc2cc3c(c(O)c2c(=O)o1)OC1(Cc2c(O)c4c(c(O)c2O1)C(=O)C(NCCN)=CC4=O)CC3O (centres unmarked) [Example 19, 7'-(2-aminoethylen)-amino purpuromycin trifluoroacetate] | 1 | – | 0.5 | > 128 | 2 | 8 | 1 | 1 | > 128 | 1 | 2 | > 128 | – | > 128 | 0.5 | 1 | MIC ([2]; ATCC881, Table 2, internal code 79, approx. 10^4 cfu/ml, Iso-Sensitest broth, 37° C., 20-24 h, air, read-out: MIC): > 128 mg/L
4 | CNC1=CC(=O)c2c(O)c3c(c(O)c2C1=O)OC1(CCc2cc4cc(C(=O)OC)oc(=O)c4c(O)c2O1)C3 (centres unmarked) [Example 32, 7'-methylamino γ-rubromycin] | 0.016 (≈ 0.0307 µM) | > 128 | – | 0.06 (≈ 0.115 µM) | 0.03 (≈ 0.0575 µM) | 0.25 | 0.016 (≈ 0.0307 µM) | 0.016 (≈ 0.0307 µM) | > 128 | 0.016 (≈ 0.0307 µM) | 0.03 (≈ 0.0575 µM) | > 128 | 0.004 (≈ 0.00767 µM) | > 128 | 0.016 (≈ 0.0307 µM) | 0.03 (≈ 0.0575 µM) | –
5 | COC(=O)c1cc2cc3c(c(O)c2c(=O)o1)OC1(Cc2c(O)c4c(c(O)c2O1)C(=O)C(N)=CC4=O)CC3O (centres unmarked) [Example 25, 7'-Aminopurpuromycin] | 0.06 (≈ 0.115 µM) | > 128 | – | 0.06 (≈ 0.115 µM) | 0.06 (≈ 0.115 µM) | 1 | 0.03 (≈ 0.0573 µM) | 0.03 (≈ 0.0573 µM) | > 128 | 0.016 (≈ 0.0306 µM) | 0.03 (≈ 0.0573 µM) | > 128 | 0.008 (≈ 0.0153 µM) | – | – | 0.06 (≈ 0.115 µM) | –
6 | COC(=O)c1cc2cc3c(c(O)c2c(=O)o1)OC1(Cc2c(O)c4c(c(O)c2O1)C(=O)C(NCCNC(=O)OC(C)(C)C)=CC4=O)CC3O (centres unmarked) [Example 18, 7'-(2-(N--BOC-amino)ethylen)-amino purpuromycin] | 0.06 (≈ 0.09 µM) | > 128 | 0.016 (≈ 0.024 µM) | 0.5 (≈ 0.75 µM) | 0.13 (≈ 0.195 µM) | 2 | 0.13 (≈ 0.195 µM) | 0.06 (≈ 0.09 µM) | > 128 | 0.06 (≈ 0.09 µM) | 0.13 (≈ 0.195 µM) | > 128 | – | > 128 | 0.25 (≈ 0.375 µM) | 0.13 (≈ 0.195 µM) | –
7 | COC(=O)c1cc2cc3c(c(O)c2c(=O)o1)OC1(Cc2c(O)c4c(c(O)c2O1)C(=O)C(NCC(F)(F)F)=CC4=O)CC3O (centres unmarked) [Example 23, 7'-(2,2,2-trifluoroethylen)-amino purpuromycin] | 0.016 (≈ 0.0264 µM) | > 128 | – | 0.06 (≈ 0.0991 µM) | 0.03 (≈ 0.0496 µM) | 2 | 0.016 (≈ 0.0264 µM) | 0.016 (≈ 0.0264 µM) | > 128 | 0.06 (≈ 0.0991 µM) | 0.13 (≈ 0.215 µM) | > 128 | 0.008 (≈ 0.0132 µM) | > 128 | 0.03 (≈ 0.0496 µM) | 0.03 (≈ 0.0496 µM) | –
8 | COC(=O)c1cc2cc3c(c(O)c2c(=O)o1)OC1(Cc2c(O)c4c(c(O)c2O1)C(=O)C(NCCO)=CC4=O)CC3O (centres unmarked) [Example 21, 7'-(2-hydroxyethylen)-amino purpuromycin] | 0.13 (≈ 0.229 µM) | ≥ 128 | – | 0.13 (≈ 0.229 µM) | 0.06 (≈ 0.106 µM) | 1 | 0.06 (≈ 0.106 µM) | 0.06 (≈ 0.106 µM) | ≥ 128 | 0.016 (≈ 0.0282 µM) | 0.03 (≈ 0.0529 µM) | ≥ 128 | 0.004 (≈ 0.00705 µM) | ≥ 128 | – | 0.13 (≈ 0.229 µM) | –
9 | CCNC1=CC(=O)c2c(O)c3c(c(O)c2C1=O)OC1(C3)CC(O)c2cc3cc(C(=O)OC)oc(=O)c3c(O)c2O1 (centres unmarked) [Example 10, 7'-ethylamino purpuromycin] | 0.06 (≈ 0.109 µM) | > 128 | 0.06 (≈ 0.109 µM) | 0.06 (≈ 0.109 µM) | 0.06 (≈ 0.109 µM) | – | 0.06 (≈ 0.109 µM) | 0.06 (≈ 0.109 µM) | > 128 | 0.06 (≈ 0.109 µM) | 0.06 (≈ 0.109 µM) | > 128 | – | – | – | 0.06 (≈ 0.109 µM) | MIC [7, 19]: 1 mg/L; MIC [12, 17]: ≤ 0.13 mg/L
10 | COC(=O)c1cc2cc3c(c(O)c2c(=O)o1)OC1(Cc2c(O)c4c(c(O)c2O1)C(=O)C(NCC#N)=CC4=O)CC3O (centres unmarked) [Example 16, 7'-(cyanomethylen)amino purpuromycin] | 0.13 (≈ 0.231 µM) | > 128 | 0.016 (≈ 0.0284 µM) | 0.5 (≈ 0.889 µM) | 0.13 (≈ 0.231 µM) | 2 | 0.13 (≈ 0.231 µM) | 0.13 (≈ 0.231 µM) | > 128 | 0.03 (≈ 0.0533 µM) | 0.13 (≈ 0.231 µM) | > 128 | – | 128 (≈ 228 µM) | 0.13 (≈ 0.231 µM) | 0.13 (≈ 0.231 µM) | –
